For series [1] the following is noted: compared to Tc; cited from earlier work.
The next series has as its target lacR (Escherichia coli, UniProt P03023). The conditions noted are these: cited from earlier work.
The subject of the next series is lacR/O. Particulars: eucaryotic cells; cited from earlier work.
The next series relates to HeLa cells. Description: Growth behavior and morphology of HeLa cells in tetracycline-containing medium. The format is cell-based, human. Here is the method: The tTA inactivation studies were carried out with 1 μg of tetracycline per ml in the culture medium. […] Only at tetracycline concentrations well above 10 μg/ml were such changes observed upon prolonged incubation.

A further series addresses T1, tTA (Escherichia coli, UniProt P04483).
T1 construct: LOCATION: 1..207; expressed in transfected cells
Description: Kinetics of tetracycline action on luciferase activity in X1 cells. The conditions noted are these: for Luciferase activity after addition of tetracycline, share of original value: tetracycline 1 μg/ml. The format is cell-based, human. Here is the method: FIG. 3B: Kinetics of tetracycline action. X1 cells were grown in 100 mm dishes to 80% confluency in the absence or presence (0.1 μg/ml) of tetracycline. At time 0, cells were washed with phosphate-buffered saline and split into smaller culture dishes ( 1/20th of the initial cultures per 35 mm dish). Half of the cultures remained in tetracycline-free medium (▪) and the other half were incubated in the presence of tetracycline (1 μg/ml; □). The X1 culture grown in tetracycline-containing medium was split in the same manner; one half was further incubated in the presence of tetracycline (●), whereas the other half was transferred to tetracycline-free medium (∘). At the times indicated, aliquots were harvested and examined for luciferase activity. The slight increase in luciferase activity monitored at 4 hr in the culture containing tetracycline (●) is reproducible and reflects luciferase induction during the washing step.
The time course of tetracycline action was analyzed in cultures grown in the absence or presence of tetracycline. At time 0, the antibiotic was added to the tetracycline-free cultures (final concentration, 1 μg/ml), whereas the tetracycline-containing cultures were rinsed and incubated in fresh antibiotic-free medium (FIG. 3 panel b). At various times, cells were harvested and analyzed for luciferase activity. […] A similarly rapid reduction of luciferase activity was observed when tetracycline was added to the fully active tetracycline-free system: within 8 hr activity dropped to about 10% and reached <2% of its original value after 12 hr.

The source of these data is US6783756B2, “Methods for regulating gene expression” (Abbott GmbH & Co., KG, priority 1993, dated 2004).

T1 sequence (P04483 whole entry, added parts left off): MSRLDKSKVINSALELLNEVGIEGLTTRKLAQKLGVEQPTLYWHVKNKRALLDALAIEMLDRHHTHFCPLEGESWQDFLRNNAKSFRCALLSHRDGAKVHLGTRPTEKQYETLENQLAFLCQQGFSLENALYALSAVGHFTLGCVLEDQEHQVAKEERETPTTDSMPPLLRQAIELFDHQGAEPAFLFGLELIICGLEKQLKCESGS
Chain of lacR (P03023 whole entry): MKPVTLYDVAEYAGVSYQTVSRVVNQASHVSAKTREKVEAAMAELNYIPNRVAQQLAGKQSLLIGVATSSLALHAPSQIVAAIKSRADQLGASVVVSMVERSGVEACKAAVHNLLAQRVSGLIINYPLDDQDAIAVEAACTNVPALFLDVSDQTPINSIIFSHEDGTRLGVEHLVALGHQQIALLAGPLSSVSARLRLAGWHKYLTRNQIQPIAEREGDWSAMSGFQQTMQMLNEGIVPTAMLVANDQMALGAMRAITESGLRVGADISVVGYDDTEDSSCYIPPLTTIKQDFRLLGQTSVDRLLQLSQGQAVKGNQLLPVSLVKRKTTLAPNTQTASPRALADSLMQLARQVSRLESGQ

As to `Cc1c2c(c(O)c3c(O)cccc13)C(=O)[C@]1(O)C(=O)C(C(N)=O)=C(O)[C@@H](N(C)C)[C@@H]1C2` [anhydrotetracycline], the Antibiotic activity result in series [1] is recorded as “reduced antibiotic activity compared to Tc”.

As to `CC(C)S[C@@H]1O[C@H](CO)[C@H](O)[C@H](O)[C@H]1O` [IPTG, isopropyl.β-D-thiogalactopyranoside], the “ka of lacR for IPTG” value on lacR was 10^6 M^−1. In addition, the “Reduction of binding constant kRo by the inducer” value at lacR (lacR/O system) was 1000 fold. Further, the “Induction by IPTG” value with lacR/O is given as “only moderate induction”.

With `CN(C)[C@@H]1C(O)=C(C(N)=O)C(=O)[C@@]2(O)C(O)=C3C(=O)c4c(O)cccc4[C@@](C)(O)[C@H]3C[C@@H]12` [tetracycline], the “Tetracycline concentration at which changes in growth behavior or morphology were observed” value in the series on HeLa cells (prolonged incubation) was “above 10 μg/ml”. Besides, the “Change in growth behavior or morphology of HeLa cells” value in the series with HeLa cells (tetracycline 0.1 μg/ml) is “no change in growth behavior or morphology”. The entries for the “Luciferase activity after addition of tetracycline, share of original value” on tTA (after 12 hr) and on tTA (within 8 hr) were less than 2% and “about 10%”, respectively. Further, the “Luciferase activity after depletion of tetracycline, share of fully induced (steady-state) level” value on tTA (within 12 hr after shift to tetracycline-free medium) is given as greater than 20%.

In the case of `CN(C)[C@H]1C(O)=C(C(N)=O)C(=O)[C@@]2(O)C(O)=C3C(=O)c4c(O)cccc4[C@@](C)(O)[C@H]3[C@H](O)[C@@H]12` [epioxytetracycline], the Antibiotic activity entry in series [1] is “reduced antibiotic activity compared to Tc”.
